Test results reported in patent US20240025875A1, “A COMPOUND AS A THYROID HORMONE BETA RECEPTOR AGONIST AND USE THEREOF” (SUNSHINE LAKE PHARMA CO., LTD., priority 2020, published 2024).

Assays:
[1] = target: T1, TRα (Homo sapiens, UniProt P10827); assay: LanthaScreen TR-FRET Thyroid Receptor alfa Coactivator Assay (in vitro binding activity); details: TR alfa-LBD
T1 construct: 5 μL of 4×TR beta/alfa-LBD; purchased Invitrogen PV4687
Procedure: (§1) 2. Detection of the Binding Activity of the Compound of the Present Invention to TRα or TRβ In Vitro
(§2) Test Materials • LanthaScreen TR-FRET Thyroid Receptor beta Coactivator Assay kit was purchased from Invitrogen, Cat. No. PV4686; • LanthaScreen TR-FRET Thyroid Receptor alfa Coactivator Assay kit was purchased from Invitrogen, Cat. No. PV4687.
(§3) The method was experimented with LanthaScreen TR-FRET Thyroid Receptor beta/alfa Coactivator Assay kit. The test compound was dissolved in DMSO and diluted 3 times to a total of 10 concentrations, and then diluted with TR-FRET Coregulator Buffer C in the kit to form a solution containing 2% DMSO, 10 μL of the solution containing 2% DMSO was taken into a 384-well plate, then 5 μL of 4×TR beta/alfa-LBD, 5 μL of a mixture containing 0.4 μM fluorescein-SRC2-2 and 8 nM Tb anti-GST antibody were added into each well, mixed thoroughly, and incubated at room temperature for 1 h in the dark. After 1 h, BMG LABTECH's PHERAstar FSX microplate reader was used to read the fluorescence value (RFU) at […]. The TR-FRET ratio was calculated by dividing the emission signal at 520 nm by the emission signal at 495 nm. Graph Pad Prism 5 software was used to draw the curve and calculate the EC50 value. The in vitro binding activity test results of some of the compounds of the examples of the present invention are shown in Table 1 below.

[2] = target: T2, TRβ (Homo sapiens, UniProt P10828); assay: LanthaScreen TR-FRET Thyroid Receptor beta Coactivator Assay (in vitro binding activity); details: TR beta-LBD
T2 construct: 5 μL of 4×TR beta/alfa-LBD; purchased Invitrogen PV4686
T2 sequence (P10828 217-461 limits assumed): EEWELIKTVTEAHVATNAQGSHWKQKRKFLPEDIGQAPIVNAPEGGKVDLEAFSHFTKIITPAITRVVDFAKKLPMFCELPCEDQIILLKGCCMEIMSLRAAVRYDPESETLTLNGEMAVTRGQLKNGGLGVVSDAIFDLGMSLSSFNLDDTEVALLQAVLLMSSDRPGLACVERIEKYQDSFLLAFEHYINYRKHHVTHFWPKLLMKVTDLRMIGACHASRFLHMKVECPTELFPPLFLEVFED
Procedure: as §1, §2, §3

T1 sequence (P10827 163-410 isoform P10827-2 limits assumed, other chains not shown): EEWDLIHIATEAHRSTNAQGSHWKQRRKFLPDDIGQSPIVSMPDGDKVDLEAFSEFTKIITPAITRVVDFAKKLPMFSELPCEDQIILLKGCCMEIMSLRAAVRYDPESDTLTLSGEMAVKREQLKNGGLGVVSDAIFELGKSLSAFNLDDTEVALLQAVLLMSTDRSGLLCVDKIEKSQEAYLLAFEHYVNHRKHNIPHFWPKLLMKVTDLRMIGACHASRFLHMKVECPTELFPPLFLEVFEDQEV

EC50 [1] [µM] | EC50 [2] [µM] | SMILES
0.176 | 0.024 | N#Cc1nn(-c2cc(Cl)c(Oc3ccc4c(c3)CCN(COCC(F)F)C4=O)c(Cl)c2)c(=O)[nH]c1=O [Example 15, 2-(3,5-dichloro-4-((1-oxo-2-((2,2-difluoroethoxy)methyl)-1,2,3,4-tetrahydroisoquinolin-6-yl)oxy)phenyl)-3,5-dioxo-2,3,4,5-tetrahydro-1,2,4-triazine-6-carbonitrile]
0.211 | 0.022 | CCOC(C)N1CCc2cc(Oc3c(Cl)cc(-n4nc(C#N)c(=O)[nH]c4=O)cc3Cl)ccc2C1=O (stereo not shown) [Example 16, 2-(3,5-dichloro-4-((2-(1-ethoxyethyl)-1-oxo-1,2,3,4-tetrahydroisoquinolin-yl)oxy)phenyl)-3,5-dioxo-2,3,4,5-tetrahydro-1,2,4-triazine-6-carbonitrile]
0.311 | 0.034 | O=C1NCCc2cc(Oc3c(Cl)cc(-n4ncc(=O)[nH]c4=O)cc3Cl)ccc21 [Example 17, 2-(3,5-Dichloro-4-((1-oxo-1,2,3,4-tetrahydroisoquinolin-6-yl)oxy)phenyl)-1,2,4-triazine-3,5(2H,4H)-dione]
> 100 | 0.192 | N#Cc1nn(-c2cc(Cl)c(Oc3ccc4c(c3)CCN(Cc3ccccc3)C4=O)c(Cl)c2)c(=O)[nH]c1=O [Example 18, 2-(4-((2-Benzyl-1-oxo-1,2,3,4-tetrahydroisoquinolin-6-yl)oxy)-3,5-dichlorophenyl)-3,5-dioxo-2,3,4,5-tetrahydro-1,2,4-triazine-6-carbonitrile]
> 100 | 0.501 | N#Cc1nn(-c2cc(Cl)c(Oc3ccc4c(=O)[nH]ccc4c3)c(Cl)c2)c(=O)[nH]c1=O [Example 19, 2-(3,5-Dichloro-4-((1-oxo-1,2-dihydroisoquinolin-6-yl)oxy)phenyl)-3,5-dioxo-2,3,4,5-tetrahydro-1,2,4-triazine-6-carbonitrile]
> 100 | 0.534 | N#Cc1nn(-c2cc(Cl)c(Oc3ccc4c(c3)CCN(Cc3ccc(F)cc3)C4=O)c(Cl)c2)c(=O)[nH]c1=O [Example 20d, 2-(3,5-dichloro-4-((2-(4-fluorobenzyl)-1-oxo-1,2,3,4-tetrahydroisoquinolin-6-yl)oxy)phenyl)-3,5-dioxo-2,3,4,5-tetrahydro-1,2,4-triazine-6-carbonitrile]
> 100 | 0.368 | Cc1ccc(CN2CCc3cc(Oc4c(Cl)cc(-n5nc(C#N)c(=O)[nH]c5=O)cc4Cl)ccc3C2=O)cc1 [Example 21d, 2-(3,5-dichloro-4-((2-(4-methylbenzyl)-1-oxo-1,2,3,4-tetrahydroisoquinolin-6-yl)oxy)phenyl)-3,5-dioxo-2,3,4,5-tetrahydro-1,2,4-triazine-6-carbonitrile]
0.156 | 0.011 | O=C1c2ccc(Oc3c(Cl)cc(-n4ncc(=O)[nH]c4=O)cc3Cl)cc2CCN1Cc1ccccc1 [Example 22, 2-(4-((2-benzyl-1-oxo-1,2,3,4-tetrahydroisoquinolin-6-yl)oxy)-3,5-dichlorophenyl)-1,2,4-triazine-3,5(2H,4H)-dione]
0.386 | 0.013 | O=C1c2ccc(Oc3c(Cl)cc(-n4ncc(=O)[nH]c4=O)cc3Cl)cc2CCN1CC1CCOCC1 [Example 23, 2-(3,5-dichloro-4-((1-oxo-2-((tetrahydro-2H-pyran-4-yl)methyl)-1,2,3,4-tetrahydroisoquinolin-6-yl)oxy)phenyl)-1,2,4-triazine-3,5(2H,4H)-dione]
> 100 | 0.241 | O=C1c2ccc(Oc3c(Cl)cc(-n4ncc(=O)[nH]c4=O)cc3Cl)cc2CCN1Cc1cccnn1 [Example 25, 2-(3,5-dichloro-4-((1-oxo-2-(pyridazin-3-ylmethyl)-1,2,3,4-tetrahydroisoquinolin-6-yl)oxy)phenyl)-1,2,4-triazine-3,5(2H,4H)-dione]
7.04 | 0.476 | Cc1cc(-n2nc(C#N)c(=O)[nH]c2=O)cc(C)c1Oc1ccc2c(c1)CCNC2=O [Example 26, 2-(3,5-dimethyl-4-((1-oxo-1,2,3,4-tetrahydroisoquinolin-6-yl)oxy)phenyl)-3,5-dioxo-2,3,4,5-tetrahydro-1,2,4-triazine-6-carbonitrile]

Continued, molecule first:

SMILES | EC50 [1] [µM] | EC50 [2] [µM]
N#Cc1nn(-c2cc(Cl)c(Oc3ccc4c(c3)CCNC4=O)c(Cl)c2)c(=O)[nH]c1=O [Example 1, 2-(3,5-dichloro-4-((1-oxo-1,2,3,4-tetrahydroisoquinolin-6-yl)oxy)phenyl)-3,5-dioxo-2,3,4,5-tetrahydro-1,2,4-triazine-6-carbonitrile] | > 100 | 0.26
CN1CCc2cc(Oc3c(Cl)cc(-n4nc(C#N)c(=O)[nH]c4=O)cc3Cl)ccc2C1=O [Example 2, 2-(3,5-dichloro-4-((2-methyl-1-oxo-1,2,3,4-tetrahydroisoquinolin-6-yl)oxy)phenyl)-3,5-dioxo-2,3,4,5-tetrahydro-1,2,4-triazine-6-carbonitrile] | 1.47 | 0.1
COCN1CCc2cc(Oc3c(Cl)cc(-n4nc(C#N)c(=O)[nH]c4=O)cc3Cl)ccc2C1=O [Example 3, 2-(3,5-dichloro-4-((2-(methoxymethyl)-1-oxo-1,2,3,4-tetrahydroisoquinolin-6-yl)oxy)phenyl)-3,5-dioxo-2,3,4,5-tetrahydro-1,2,4-triazine-6-carbonitrile] | 0.29 | 0.026
CCOCN1CCc2cc(Oc3c(Cl)cc(-n4nc(C#N)c(=O)[nH]c4=O)cc3Cl)ccc2C1=O [Example 4, 2-(3,5-dichloro-4-((2-(ethoxymethyl)-1-oxo-1,2,3,4-tetrahydroisoquinolin-6-yl)oxy)phenyl)-3,5-dioxo-2,3,4,5-tetrahydro-1,2,4-triazine-6-carbonitrile] | 0.21 | 0.018
CCN1CCc2cc(Oc3c(Cl)cc(-n4nc(C#N)c(=O)[nH]c4=O)cc3Cl)ccc2C1=O [Example 5, 2-(3,5-dichloro-4-((2-ethyl-1-oxo-1,2,3,4-tetrahydroisoquinolin-6-yl)oxy)phenyl)-3,5-dioxo-2,3,4,5-tetrahydro-1,2,4-triazine-6-carbonitrile] | 0.074 | 0.014
N#Cc1nn(-c2cc(Cl)c(Oc3ccc4c(c3)CCCNC4=O)c(Cl)c2)c(=O)[nH]c1=O [Example 7, 2-(3,5-Dichloro-4-((1-oxo-2,3,4,5-tetrahydro-2H-benzo[c]azepin-7-yl)oxy)phenyl)-3,5-dioxo-2,3,4,5-tetrahydro-1,2,4-triazine-6-carbonitrile] | 0.95 | 0.092
N#Cc1nn(-c2cc(Cl)c(Oc3ccc4c(c3)NC(=O)CC4)c(Cl)c2)c(=O)[nH]c1=O [Example 8, 2-(3,5-dichloro-4-((2-oxo-1,2,3,4-tetrahydroquinolin-7-yl)oxy)phenyl)-3,5-dioxo-2,3,4,5-tetrahydro-1,2,4-triazine-6-carbonitrile] | > 100 | > 10
N#Cc1nn(-c2cc(Cl)c(Oc3ccc4c(c3)C(=O)NCC4)c(Cl)c2)c(=O)[nH]c1=O [Example 9, 2-(3,5-dichloro-4-((1-oxo-1,2,3,4-tetrahydroisoquinolin-7-yl)oxy)phenyl)-3,5-dioxo-2,3,4,5-tetrahydro-1,2,4-triazine-6-carbonitrile] | > 100 | > 10
COCCN1CCc2cc(Oc3c(Cl)cc(-n4nc(C#N)c(=O)[nH]c4=O)cc3Cl)ccc2C1=O [Example 10, 2-(3,5-Dichloro-4-((2-(2-methoxyethyl)-1-oxo-1,2,3,4-tetrahydroisoquinolin-6-yl)oxy)phenyl)-3,5-dioxo-2,3,4,5-tetrahydro-1,2,4-triazine-6-carbonitrile] | 0.206 | 0.049
N#Cc1nn(-c2cc(Cl)c(Oc3ccc4c(c3)CCN(CC3CCOCC3)C4=O)c(Cl)c2)c(=O)[nH]c1=O [Example 12, 2-(3,5-Dichloro-4-((1-oxo-2-((tetrahydro-2H-pyran-4-yl)methyl)-1,2,3,4-tetrahydroisoquinolin-6-yl)oxy)phenyl)-3,5-dioxo-2,3,4,5-tetrahydro-1,2,4-triazine-6-carbonitrile] | 0.451 | 0.021
CC(C)OCN1CCc2cc(Oc3c(Cl)cc(-n4nc(C#N)c(=O)[nH]c4=O)cc3Cl)ccc2C1=O [Example 13, 2-(3,5-Dichloro-4-((2-(isopropoxymethyl)-1-oxo-1,2,3,4-tetrahydroisoquinolin-6-yl)oxy)phenyl)-3,5-dioxo-2,3,4,5-tetrahydro-1,2,4-triazine-6-carbonitrile] | 0.073 | 0.013
N#Cc1nn(-c2cc(Cl)c(Oc3ccc4c(c3)CCN(COCC(F)(F)F)C4=O)c(Cl)c2)c(=O)[nH]c1=O [Example 14, 2-(3,5-Dichloro-4-((1-oxo-2-((2,2,2-trifluoroethoxy)methyl)-1,2,3,4-tetrahydroisoquinolin-6-yl)oxy)phenyl)-3,5-dioxo-2,3,4,5-tetrahydro-1,2,4-triazine-6-carbonitrile] | 0.226 | 0.03
